Assay results taken from PubChem BioAssay (NCI).
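Dose response: 5 concentrations. Exposure: 48 h. Format: 96-well plates. Endpoint: linear interpolation; highest concentration if not reached. At the GI50, growth is halved. TGI marks complete inhibition of growth.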

Legend:
Assay in all cases: DTP human tumour cell line panel, 48 h
[1] = tested on: SN12C renal
[2] = tested on: HCT-15 colon
[3] = tested on: SK-MEL-5 melanoma
[4] = tested on: RPMI-8226 leukemia
[5] = tested on: IGROV1 ovarian
[6] = tested on: A549 NSCLC
[7] = tested on: NCI-H226 lung
[8] = tested on: HL-60(TB) leukemia
[9] = tested on: CCRF-CEM leukemia
[10] = tested on: PC-3 prostate
[11] = tested on: NCI-H460 lung
[12] = tested on: KM12 colon
[13] = tested on: OVCAR-4 ovarian
[14] = tested on: OVCAR-5 ovarian
[15] = tested on: SK-MEL-2 melanoma
[16] = tested on: HS 578T breast
[17] = tested on: 786-0 renal
[18] = tested on: UACC-257 melanoma
[19] = tested on: A498 renal
[20] = tested on: MOLT-4 leukemia
[21] = tested on: SNB-19 CNS
[22] = tested on: ACHN renal
[23] = tested on: DU-145 prostate
[24] = tested on: SK-OV-3 ovarian
[25] = tested on: M14 melanoma
[26] = tested on: NCI/ADR-RES ovarian
[27] = tested on: SR leukemia
[28] = tested on: BT-549 breast
[29] = tested on: MCF7 breast
[30] = tested on: SNB-75 CNS
[31] = tested on: SK-MEL-28 melanoma
[32] = tested on: HCT-116 colon
[33] = tested on: LOX IMVI melanoma
[34] = tested on: RXF 393 renal
[35] = tested on: SW-620 colon
[36] = tested on: U251 CNS
[37] = tested on: NCI-H23 lung
[38] = tested on: HCC-2998 colon
[39] = tested on: COLO 205 colon
[40] = tested on: SF-268 CNS
[41] = tested on: HOP-92 NSCLC
[42] = tested on: HOP-62 NSCLC
[43] = tested on: UO-31 renal
[44] = tested on: T-47D breast
[45] = tested on: OVCAR-3 ovarian
[46] = tested on: K-562 leukemia
[47] = tested on: MDA-MB-435
[48] = tested on: SF-539 CNS
[49] = tested on: TK-10 renal
[50] = tested on: MALME-3M melanoma
[51] = tested on: HT29 colon
[52] = tested on: MDA-MB-231 breast
[53] = tested on: UACC-62 melanoma
[54] = tested on: SF-295 CNS
[55] = tested on: CAKI-1 renal
[56] = tested on: NCI-H522 lung
[57] = tested on: OVCAR-8 ovarian
[58] = tested on: EKVX NSCLC

CCOC(=O)C(CC(C)C)NC(=O)CSc1nnc(COc2ccc(Cl)cc2)n1-c1ccccc1 (stereo not given)
TGI [1]: 28.9 µM
TGI [2]: 37.1 µM
TGI [3]: 32.6 µM
TGI [4]: 54.5 µM
TGI [5]: 29.2 µM
TGI [6]: 45.9 µM
TGI [7]: 48.5 µM
TGI [8]: 43.4 µM
TGI [9]: 23.8 µM
TGI [10]: 30.8 µM
TGI [11]: 29.3 µM
TGI [12]: 39.7 µM
TGI [13]: 36.2 µM
TGI [14]: 39.4 µM
TGI [15]: 30 µM
TGI [16]: 60.9 µM
TGI [17]: 28.6 µM
TGI [18]: 23.2 µM
TGI [19]: 28.2 µM
TGI [20]: > 100 µM
TGI [21]: 31.6 µM
TGI [22]: 26 µM
TGI [23]: 32.4 µM
TGI [24]: 59.8 µM
TGI [25]: 31.9 µM
TGI [26]: 44.3 µM
TGI [27]: 15.6 µM
TGI [28]: 32.1 µM
TGI [29]: 35 µM
TGI [30]: 32 µM
TGI [31]: 33.1 µM
TGI [32]: 28 µM
TGI [33]: 28.9 µM
TGI [34]: 34.3 µM
TGI [35]: 49.7 µM
TGI [36]: 33.4 µM
TGI [37]: 29.5 µM
TGI [38]: 27.4 µM
TGI [39]: 36.2 µM
TGI [40]: 35.6 µM
TGI [41]: 39.8 µM
TGI [42]: 36.8 µM
TGI [43]: 3.68 µM
TGI [44]: 45.3 µM
TGI [45]: 24.7 µM
TGI [46]: > 100 µM
TGI [47]: 35.6 µM
TGI [48]: 42.3 µM
TGI [49]: 33.1 µM
TGI [50]: 37.8 µM
TGI [51]: 32.7 µM
TGI [52]: 30.6 µM
TGI [53]: 30.7 µM

CC(=O)N1N=C(c2ccc(Nc3ccnc4cc(Cl)ccc34)cc2)CC1c1ccc(Cl)cc1 (stereo not given)
GI50 [54]: 3.58 µM
TGI [54]: > 100 µM
GI50 [1]: 30.7 µM
TGI [1]: > 100 µM
GI50 [2]: 3.33 µM
TGI [2]: > 100 µM
GI50 [3]: 2.2 µM
TGI [3]: 16 µM
GI50 [5]: > 100 µM
TGI [5]: > 100 µM
GI50 [6]: 8.81 µM
TGI [6]: > 100 µM
GI50 [7]: > 100 µM
TGI [7]: > 100 µM
GI50 [8]: 3.56 µM
TGI [8]: > 100 µM
GI50 [10]: 3.02 µM
TGI [10]: > 100 µM
GI50 [11]: > 100 µM
TGI [11]: > 100 µM
GI50 [12]: 6.59 µM
TGI [12]: > 100 µM
GI50 [13]: 6.92 µM
TGI [13]: > 100 µM
GI50 [14]: > 100 µM
TGI [14]: > 100 µM
GI50 [15]: > 100 µM
TGI [15]: > 100 µM
GI50 [16]: > 100 µM
TGI [16]: > 100 µM
GI50 [17]: > 100 µM
TGI [17]: > 100 µM
GI50 [18]: > 100 µM
TGI [18]: > 100 µM
GI50 [19]: > 100 µM
TGI [19]: > 100 µM
GI50 [20]: 2.42 µM
TGI [20]: > 100 µM
GI50 [55]: > 100 µM
TGI [55]: > 100 µM
GI50 [21]: > 100 µM
TGI [21]: > 100 µM
GI50 [22]: 3.96 µM
TGI [22]: > 100 µM
GI50 [23]: > 100 µM
TGI [23]: > 100 µM
GI50 [25]: 5.24 µM
TGI [25]: > 100 µM
GI50 [26]: 3.04 µM
TGI [26]: > 100 µM
GI50 [27]: 0.612 µM
TGI [27]: > 100 µM
GI50 [28]: 5.4 µM
TGI [28]: > 100 µM
GI50 [29]: 4.04 µM
TGI [29]: > 100 µM
GI50 [31]: 4.88 µM
TGI [31]: > 100 µM
GI50 [32]: 38.8 µM
TGI [32]: > 100 µM
GI50 [33]: 3.15 µM
TGI [33]: > 100 µM
GI50 [34]: 5.07 µM
TGI [34]: > 100 µM
GI50 [35]: > 100 µM
TGI [35]: > 100 µM
GI50 [36]: > 100 µM
TGI [36]: > 100 µM
GI50 [37]: > 100 µM
TGI [37]: > 100 µM
GI50 [38]: > 100 µM
TGI [38]: > 100 µM
GI50 [39]: 5.93 µM
TGI [39]: > 100 µM
GI50 [56]: 5.05 µM
TGI [56]: > 100 µM
GI50 [40]: 9.1 µM
TGI [40]: > 100 µM
GI50 [41]: > 100 µM
TGI [41]: > 100 µM
GI50 [42]: > 100 µM
TGI [42]: > 100 µM
GI50 [43]: 3.87 µM
TGI [43]: > 100 µM
GI50 [44]: 1.57 µM
TGI [44]: > 100 µM
GI50 [45]: 7.19 µM
TGI [45]: > 100 µM
GI50 [47]: 0.566 µM
TGI [47]: > 100 µM
GI50 [48]: > 100 µM
TGI [48]: > 100 µM
GI50 [49]: > 100 µM
TGI [49]: > 100 µM
GI50 [51]: 5.4 µM
TGI [51]: > 100 µM
GI50 [57]: > 100 µM
TGI [57]: > 100 µM
GI50 [52]: > 100 µM
TGI [52]: > 100 µM
GI50 [53]: 2.95 µM
TGI [53]: > 100 µM

COc1ccc2c(C3(c4cn(C)c5cc(OC)ccc45)C(=O)Nc4ccc(Cl)cc43)cn(C)c2c1
GI50 [54]: 5.16 µM
TGI [54]: > 100 µM
GI50 [1]: 1.91 µM
TGI [1]: 4.63 µM
GI50 [2]: 4.5 µM
TGI [2]: > 100 µM
GI50 [3]: 4.26 µM
TGI [3]: 20.8 µM
GI50 [4]: 3.94 µM
TGI [4]: > 100 µM
GI50 [5]: 2.82 µM
TGI [5]: > 100 µM
GI50 [7]: 5.44 µM
TGI [7]: > 100 µM
GI50 [9]: 3.81 µM
TGI [9]: > 100 µM
GI50 [10]: 3.65 µM
TGI [10]: > 100 µM
GI50 [11]: 3.29 µM
TGI [11]: 11.7 µM
GI50 [12]: 3.82 µM
TGI [12]: 21.1 µM
GI50 [13]: 3.35 µM
TGI [13]: > 100 µM
GI50 [14]: 5.37 µM
TGI [14]: > 100 µM
GI50 [15]: 2.97 µM
TGI [15]: 6.55 µM
GI50 [16]: 3.5 µM
TGI [16]: 87.9 µM
GI50 [17]: 4.12 µM
TGI [17]: 70 µM
GI50 [18]: 2.29 µM
TGI [18]: 8.56 µM
GI50 [19]: 4.5 µM
TGI [19]: 88.7 µM
GI50 [20]: 2.58 µM
TGI [20]: 8.01 µM
GI50 [55]: 2.04 µM
TGI [55]: > 100 µM
GI50 [21]: 5.81 µM
TGI [21]: > 100 µM
GI50 [22]: 3.32 µM
TGI [22]: > 100 µM
GI50 [23]: 4.84 µM
TGI [23]: > 100 µM
GI50 [24]: 5.07 µM
TGI [24]: > 100 µM
GI50 [25]: 4.19 µM
TGI [25]: > 100 µM
GI50 [26]: 3.9 µM
TGI [26]: > 100 µM
GI50 [27]: 2.64 µM
TGI [27]: 6.83 µM
GI50 [28]: 5.26 µM
TGI [28]: 83.4 µM
GI50 [29]: 3.09 µM
TGI [29]: > 100 µM
GI50 [30]: 2.1 µM
TGI [30]: > 100 µM
GI50 [31]: 4.71 µM
TGI [31]: > 100 µM
GI50 [32]: 3.15 µM
TGI [32]: 19.7 µM
GI50 [33]: 3.4 µM
TGI [33]: 21.9 µM
GI50 [34]: 2.5 µM
TGI [34]: 7.87 µM
GI50 [35]: 4.67 µM
TGI [35]: > 100 µM
GI50 [36]: 3.81 µM
TGI [36]: > 100 µM
GI50 [37]: 3.99 µM
TGI [37]: > 100 µM
GI50 [38]: 6.35 µM
TGI [38]: > 100 µM
GI50 [39]: 1.95 µM
TGI [39]: 4.73 µM
GI50 [56]: 3.38 µM
TGI [56]: 12.7 µM
GI50 [40]: 3.67 µM
TGI [40]: > 100 µM
GI50 [41]: 3.02 µM
TGI [41]: 37.4 µM
GI50 [42]: 4.2 µM
TGI [42]: > 100 µM
GI50 [43]: 1.48 µM
TGI [43]: > 100 µM
GI50 [44]: 3.89 µM
TGI [44]: > 100 µM
GI50 [45]: 4.31 µM
TGI [45]: 18.4 µM
GI50 [46]: 3.38 µM
TGI [46]: > 100 µM
GI50 [47]: 2.51 µM
TGI [47]: 7.77 µM
GI50 [48]: 9.19 µM
TGI [48]: > 100 µM
GI50 [50]: 3.62 µM
TGI [50]: 57.6 µM
GI50 [51]: 3.22 µM
TGI [51]: 24 µM
GI50 [57]: 3.09 µM
TGI [57]: > 100 µM
GI50 [52]: 1.53 µM
TGI [52]: 5.1 µM
GI50 [53]: 3.49 µM
TGI [53]: 25 µM
GI50 [58]: 2.6 µM
TGI [58]: > 100 µM
